Reference: patent publication US6906078B2, “Method of using (H+/K+) ATPase inhibitors as antiviral agents” (Pharmacia Corporation, priority 1994, dated 2005)
Read-outs that look alike come from different tables or passages of the source.

Assays:
(H+/K+)-ATPase = target: T1, (H+/K+)-ATPase (Canis lupus familiaris, UniProt P50996); assay: Inhibition of (H+/K+)-ATPase from canine gastric mucosa (inorganic phosphate release); assay type: biochemical; conditions: canine gastric mucosa microsomes, pH 6.0, 30 min preincubation at 37° C.; read-out: (H+/K+)-ATPase IC50
T1 construct: The microsomes retained at the 15%-30% sucrose interface, after centrifugation at 250,000×g for sixty minutes, were used as the source of (H^+/K^+)-ATPase; from tissue; host or cells: gastric glandular mucosa of mongrel dogs (microsomal fraction, lyophilized)
T1 sequence (P50996 whole entry): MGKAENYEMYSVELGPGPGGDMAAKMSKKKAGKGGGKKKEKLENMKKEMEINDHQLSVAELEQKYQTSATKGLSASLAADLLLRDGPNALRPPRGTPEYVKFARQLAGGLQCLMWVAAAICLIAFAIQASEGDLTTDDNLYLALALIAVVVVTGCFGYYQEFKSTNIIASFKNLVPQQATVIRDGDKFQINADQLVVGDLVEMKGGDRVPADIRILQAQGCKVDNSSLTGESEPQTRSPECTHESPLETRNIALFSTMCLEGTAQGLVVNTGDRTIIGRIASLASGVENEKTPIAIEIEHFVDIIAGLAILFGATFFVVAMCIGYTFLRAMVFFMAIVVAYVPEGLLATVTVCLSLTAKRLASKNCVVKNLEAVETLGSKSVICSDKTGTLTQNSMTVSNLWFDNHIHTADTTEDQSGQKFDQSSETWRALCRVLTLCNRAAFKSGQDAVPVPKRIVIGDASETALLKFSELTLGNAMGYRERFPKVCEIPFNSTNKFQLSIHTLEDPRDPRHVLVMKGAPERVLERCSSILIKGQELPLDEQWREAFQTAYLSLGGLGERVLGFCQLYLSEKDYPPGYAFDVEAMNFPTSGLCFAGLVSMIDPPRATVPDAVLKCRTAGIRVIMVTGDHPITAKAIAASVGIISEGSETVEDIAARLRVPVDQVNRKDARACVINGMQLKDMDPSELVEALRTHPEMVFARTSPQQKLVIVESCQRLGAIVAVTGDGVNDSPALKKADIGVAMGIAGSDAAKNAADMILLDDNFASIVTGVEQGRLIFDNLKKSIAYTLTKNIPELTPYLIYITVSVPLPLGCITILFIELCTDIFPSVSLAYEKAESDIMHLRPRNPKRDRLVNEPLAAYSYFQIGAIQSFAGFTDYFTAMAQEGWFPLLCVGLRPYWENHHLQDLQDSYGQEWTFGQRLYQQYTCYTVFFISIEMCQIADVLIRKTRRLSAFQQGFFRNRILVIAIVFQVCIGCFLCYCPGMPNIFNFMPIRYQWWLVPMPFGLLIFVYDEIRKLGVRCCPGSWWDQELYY
T1 sequence (P33704 whole entry partner): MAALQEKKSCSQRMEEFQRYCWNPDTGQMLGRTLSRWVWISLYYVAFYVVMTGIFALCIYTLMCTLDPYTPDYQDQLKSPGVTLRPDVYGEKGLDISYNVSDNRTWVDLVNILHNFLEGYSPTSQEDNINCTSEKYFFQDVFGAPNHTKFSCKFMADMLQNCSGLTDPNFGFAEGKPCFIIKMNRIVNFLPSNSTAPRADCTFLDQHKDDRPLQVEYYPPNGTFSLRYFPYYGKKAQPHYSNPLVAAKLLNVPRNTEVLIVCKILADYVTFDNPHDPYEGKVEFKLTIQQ
Protocol: Mongrel dogs weighing 15 to 25 kilograms were fasted for twenty-four hours, with water provided ad libitum. The animals were anesthetized with pentobarbital and the stomachs were removed. Subsequent tissue manipulations and subcellular fractionations were performed at 0° C. to 4° C. After the stomachs were cut open and rinsed with tap water, the antral and cardiac regions were removed and the remaining tissue was rinsed three times in saline. The glandular mucosa was removed mechanically, chopped finely in a medium containing 10 mM Tris hydrochloride (pH 7.4) and 250 mM sucrose, and homogenized. The homogenate was centrifuged at 20,000×g for twenty minutes and the pellet discarded. The supernatant was then centrifuged at 150,000×g for ninety minutes and the supernatant discarded. The pellet was resuspended in the Tris-HCl/sucrose medium by homogenization. Part (2 ml) of the resultant microsomal suspension was layered onto a step gradient consisting of 9 ml of 15% sucrose above 12 ml of 30% sucrose, each sucrose solution being buffered with 10 mM Tris hydrochloride (pH 7.4) containing 0.01% sodium azide. The microsomes retained at the 15%-30% sucrose interface, after centrifugation at 250,000×g for sixty minutes, were used as the source of (H^+/K^+)-ATPase. Microsomal preparations were lyophilized, a process that assured potassium ion permiability, and stored at −10° C. until used.
(H^+/K^+)-ATPase activity for each test compound was determined, in duplicate, by measuring the release of inorganic phosphate, which was assayed according to the method of J. ChandraRajan and L. Klein, Anal. Biochem., 72 , 407 (1976). The (H^+/K^+)-ATPase assay medium consisted of 20 mm mes-Tris (pH 6.0), 5 mM magnesium chloride, 25 mM sucrose, and 4 mM Tris-ATP with or without 20 mM potassium chloride in a total volume of 2 ml. Microsomal suspensions (20 to 60 mcl, containing about 25 mcg protein) were added to the assay medium, without Tris-ATP, and then preincubated with a test compound for thirty minutes at 37° C. The assay was initiated by adding Tris-ATP and the mixture was incubated another thirty minutes at 37° C. A 200-mcl aliquot of the assay mixture was then added to 1.4 ml of a solution consisting of 0.1 M sodium acetate (pH 4.0) and 10% sodium dodecylsulfate, followed by the addition of 200 mcl each of 1% ammonium molybdate and 1% ascorbic acid. At least fifteen minutes later, the optical absorbance at 870 nm (which was proportional to inorganic phosphate concentration up to 100 nmoles per tube, as determined by a standard curve) was obtained. Enzyme activity was linear with incubation time.
(H^+/K^+)-ATPase activity is represented by the difference between the measured activities in the presence of potassium-ion (K^+-stimulated) and in the absence of potassium ion (basal).

gastric acid secretion = assay: Inhibition of gastric acid secretion in gastric fistula beagle dogs (histamine-stimulated); assay type: in vivo; conditions: for inhibition in vivo at 3 mg/kg: Canis lupus familiaris, 4 h, read-out: Gastric-Fistula Beagle % Inhibition (3 mg/kg dose)
Excerpt: Adult female beagle dogs weighing 6 to 11 kilograms obtained from Laboratory Research Enterprises (Kalamazoo, Mich.) or from Hazelton Research Animals (Cumberland, Va.) were surgically implanted with a simple Thomas-type gastric cannula. After recovery from surgery, the dogs were trained to stand quietly, fully conscious, in Pavlov-type dog restraining slings and were acclimated to intravenous infusion of histamine dihydrochloride. During the course of these studies, no dog was used more than once a week. All dogs were deprived of food, but not water, for 18 hours prior to each assay. Each dog was initially infused with 0.15 M sodium chloride solution at a constant rate of […]. The volume of gastric secretions, collected in plastic bottles affixed to the cannula, were measured to the nearest 0.1 ml at 30 minute intervals. One of the following protocols was followed, depending on the route chosen for administration of test compound.
Intravenous dosing: Following a 30-minute basal secretion period, test compounds were administered intravenously (i.v.). At the end of an additional 30 minute period, the saline infusion was replaced with histamine dihydrochloride in saline administered at a rate 15 mcg per kilogram of body weight per hour. Histamine stimulation was maintained for a maximum of four hours during which time gastric secretions were collected every 30 minutes. The pH and titratable acidity were determined for samples from each collection period.
Intragastric dosing: Following a 30-minute basal secretion period, he collection bottles were removed, dosing plugs here inserted, and test compounds were administered intragastrically (i.g.) At the end of a 30-minute drug absorption period, the stomachs were emptied, the collection bottles were reattached, and collections were resumed at 30-minute intervals. Simultaneously, the saline infusion was replaced with a continuous intravenous infusion of histamine dihydrochloride in saline administered for four hours at a rate 15 mcg per kilogram of body weight per hour.
Intraduodenal dosing: Dogs were also equipped with duodenal cannulas for intraduodenal (i.d.) administration of test compounds. Dosing was otherwise performed as described for intragastric dosing.
Data from each protocol were analyzed for three gastric sample variables: volume of gastric juice, acid concentration, and total acid output. Percent inhibition for each four-hour experimental period was determined for each parameter by comparison with 3 to 4 controls in which […]. Estimates of ED50's were determined from dose response curves.

[1] = iv, 3 mg/kg i.v., histamine-stimulated, four-hour period
[2] = intraduodenal, 3 mg/kg i.d., histamine-stimulated, four-hour period

| SMILES | IC50 ((H+/K+)-ATPase) [µM] | inhibition in vivo at 3 mg/kg (gastric acid secretion; [1]) [%] | inhibition in vivo at 3 mg/kg (gastric acid secretion; [2]) [%] | melting point [°C] | other results |
| --- | --- | --- | --- | --- | --- |
| COC(=O)c1cccc(C[S+]([O-])c2nc3ccccc3[nH]2)c1N (stereo not shown) [Example 69, Methyl 2-amino-3-[(1H-benzimidazol-2-ylsulfinyl)methyl]benzoate hydrate] | 153 | – | – | – | inhibition in vivo at 3 mg/kg (gastric acid secretion; intraduodenal): 28% |
| Nc1cccc(C[S+]([O-])c2nc3ccccc3[nH]2)n1 (stereo not shown) [Example 85, 6-[(1H-Benzimidazol-2-ylsulfinyl)methyl]-2-pyridinamine] | 2.5 | 59 | – | – | – |
| CCc1ccc(N)c(C[S+]([O-])c2nc3ccccc3[nH]2)c1 (stereo not shown) [Example 37, 2-[(1H-Benzimidazol-2-ylsulfinyl)methyl]-4-ethylbenzenamine] | 2 | – | 62 | 155 to 156 | – |
| CCOc1ccc2[nH]c([S+]([O-])Cc3cc(C)ccc3N)nc2c1 (stereo not shown) [Example 61, 2-[[(5-Ethoxy-1H-benzimidazol-2-yl)sulfinyl]-methyl]-4-methylbenzenamine] | 5.3 | – | – | 144 to 145 | – |
| CCc1cccc(C[S+]([O-])c2nc3ccccc3[nH]2)c1N (stereo not shown) [Example 38, 2-[(1H-Benzimidazol-2-ylsulfinyl)methyl]-6-ethylbenzenamine] | 3.9 | – | 21 | – | – |
| CCNc1cccc(C[S+]([O-])c2nc3ccccc3[nH]2)n1 (stereo not shown) [Example 109, 6-[(1H-Benzimidazol-2-ylsulfinyl)methyl]-N-ethyl-2-pyridinamine] | 20 | – | 58 | – | – |
| Nc1ccc(C(F)(F)F)cc1C[S+]([O-])c1nc2ccccc2[nH]1 (stereo not shown) [Example 49, 2-[(1H-Benzimidazol-2-ylsulfinyl)methyl]-4-(trifluoromethyl)benzenamine] | > 100 | – | 16 | 185 to 187 | – |
| Cc1cccc2[nH]c([S+]([O-])Cc3ccccc3N)nc12.Cc1cccc2[nH]c([S+]([O-])Cc3ccccc3N)nc12.O (stereo not shown) [Example 8, 2-[[(4-Methyl-1H-benzimidazol-2-yl)sulfinyl]methyl]benzenamine hemihydrate] | 7.4 | – | – | – | Gastric-Fistula Beagle % Inhibition (3 mg/kg dose) (gastric acid secretion; 3 mg/kg i.v., histamine-stimulated, four-hour period): 60 i.v. % |
| Cc1cccc(C[S+]([O-])c2nc3ccccc3[nH]2)c1N (stereo not shown) [Example 28, 2-[(1H-Benzimidazol-2-ylsulfinyl)methyl]-6-methylbenzenamine] | 3.2 | 93 | 44 | 156 to 157 | – |
| CC(=O)Nc1ccccc1C[S+]([O-])c1nc2ccccc2[nH]1 (stereo not shown) [Example 6, N-[2-[(1H-Benzimidazol-2-ylsulfinyl)methyl]phenyl]acetamide] | > 100 | 37 | – | 201 to 202.5 | – |
| COc1ccc2[nH]c([S+]([O-])Cc3cccc(C)c3N)nc2c1 (stereo not shown) [Example 36, 2-[[(5-Methoxy-1H-benzimidazol-2-yl)sulfinyl]methyl]-6-methylbenzenamine] | 5.4 | 96 | 72 | 142 to 144 | – |
| Nc1cc(Cl)ccc1C[S+]([O-])c1nc2ccccc2[nH]1 (stereo not shown) [Example 18, 2-[(1H-Benzimidazol-2-ylsulfinyl)methyl]-5-chlorobenzenamine] | 24 | 13 | – | 173.5 to 175.5 | – |
| COc1ccc2[nH]c([S+]([O-])Cc3cccc(N)n3)nc2c1 (stereo not shown) [Example 91, 6-[[(5-Methoxy-1H-benzimidazol-2-yl)sulfinyl]-methyl]-2-pyridinamine] | 4.5 | 46 | – | – | – |
| CCCCc1ccc(N)c(C[S+]([O-])c2nc3ccccc3[nH]2)c1 (stereo not shown) [Example 51, 2-[(1H-Benzimidazol-2-ylsulfinyl)methyl]-4-butylbenzenamine] | 2.6 | – | 19 | 146 to 148 | – |
| Nc1ccc(Cl)cc1C[S+]([O-])c1nc2ccccc2[nH]1 (stereo not shown) [Example 16, 2-[(1H-Benzimidazol-2-ylsulfinyl)methyl]-4-chlorobenzenamine] | 130 | 24 | – | 210 to 211 | – |
| Cc1ccc(N)c(C[S+]([O-])c2nc3ccccc3[nH]2)c1 (stereo not shown) [Example 26, 2-[(1H-Benzimidazol-2-ylsulfinyl)methyl]-4-methylbenzenamine] | 2.1 | 67 | – | – | – |
| Nc1ncccc1C[S+]([O-])c1nc2ccccc2[nH]1 (stereo not shown) [Example 81, 3-[(1H-Benzimidazol-2-ylsulfinyl)methyl]-2-pyridinamine hydrate] | ≥ 100 | – | – | – | inhibition in vivo at 3 mg/kg (gastric acid secretion; iv): 41% |
| Cc1cccc(N)c1C[S+]([O-])c1nc2ccccc2[nH]1 (stereo not shown) [Example 24, 2-[(1H-Benzimidazol-2-ylsulfinyl)methyl]-3-methylbenzenamine ¼ hydrate] | 0.66 | 73 | – | – | – |
| Nc1ccc(F)cc1C[S+]([O-])c1nc2ccccc2[nH]1 (stereo not shown) [Example 76, 2-[(1H-Benzimidazol-2-ylsulfinyl)methyl]-4-fluorobenzenamine] | 24.9 | – | – | 184 to 185 | – |
| Nc1ccc(C(F)(F)F)cc1CSc1nc2ccccc2[nH]1 [Example 48, 2-[(1H-Benzimidazol-2-ylthio)methyl]-4-(trifluoromethyl)benzenamine] | – | – | – | 130 to 137 | – |
| COc1ccc2[nH]c(SCc3ccccc3N)nc2c1 [Example 11, 2-[[(5-methoxy-1H-benzimidazol-2-yl)thio]methyl]benzenamine] | – | – | – | 140 to 142 | – |
| Nc1ccccc1C[S+]([O-])c1nc2ccccc2[nH]1 (stereo not shown) [Example 3, 2-[(1H-Benzimidazol-2-ylsulfinyl)methyl]benzenamine] | 4.3 | 59 | 53 | 164 to 165 | – |
| Cc1cccc(N)c1C[S+]([O-])c1nc2ccccc2[nH]1 (stereo not shown) (hydrate or solvate) [Example 24, 2-[(1H-Benzimidazol-2-ylsulfinyl)methyl]-3-methylbenzenamine ¼ hydrate] | – | – | – | 152 to 153 | – |
